Data as given in patent US10933045B2, “Intranasal compositions for treatment of neurological and neurodegenerative diseases and disorders” (priority 2014, dated 2021).
Read-outs that look alike come from different tables or passages of the source.

How the values were obtained:
acetylcholinesterase = acetylcholinesterase (Homo sapiens, UniProt P22303); conditions: estimated (Gobburu et al. 2001); cited from earlier work
[1] = assumed value from literature; cited from earlier work
sigma one receptor [2] = target: T1, sigma one receptor (Rattus norvegicus, UniProt Q9R0C9); conditions: read-out: dissociation constant (Kd); binding studies with rat brain; cited from earlier work
T1 construct: host or cells: rat brain
T1 sequence (Q9R0C9 whole entry): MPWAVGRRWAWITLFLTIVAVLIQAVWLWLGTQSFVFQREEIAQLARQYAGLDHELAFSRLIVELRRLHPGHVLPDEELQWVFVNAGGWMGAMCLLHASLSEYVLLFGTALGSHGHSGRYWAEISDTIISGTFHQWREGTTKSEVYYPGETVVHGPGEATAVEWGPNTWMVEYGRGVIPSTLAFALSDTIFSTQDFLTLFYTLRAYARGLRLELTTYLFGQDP

sigma one receptor [3] = target: T1, sigma one receptor; assay: Dextromethorphan binding studies with rat brain (Klein and Musacchio 1992)
[4] = cited from earlier work
[5] = Alzheimer's disease patients, 2 mg i.v. dose (Hossain et al. 2002)

Sequence of acetylcholinesterase (P22303 32-614): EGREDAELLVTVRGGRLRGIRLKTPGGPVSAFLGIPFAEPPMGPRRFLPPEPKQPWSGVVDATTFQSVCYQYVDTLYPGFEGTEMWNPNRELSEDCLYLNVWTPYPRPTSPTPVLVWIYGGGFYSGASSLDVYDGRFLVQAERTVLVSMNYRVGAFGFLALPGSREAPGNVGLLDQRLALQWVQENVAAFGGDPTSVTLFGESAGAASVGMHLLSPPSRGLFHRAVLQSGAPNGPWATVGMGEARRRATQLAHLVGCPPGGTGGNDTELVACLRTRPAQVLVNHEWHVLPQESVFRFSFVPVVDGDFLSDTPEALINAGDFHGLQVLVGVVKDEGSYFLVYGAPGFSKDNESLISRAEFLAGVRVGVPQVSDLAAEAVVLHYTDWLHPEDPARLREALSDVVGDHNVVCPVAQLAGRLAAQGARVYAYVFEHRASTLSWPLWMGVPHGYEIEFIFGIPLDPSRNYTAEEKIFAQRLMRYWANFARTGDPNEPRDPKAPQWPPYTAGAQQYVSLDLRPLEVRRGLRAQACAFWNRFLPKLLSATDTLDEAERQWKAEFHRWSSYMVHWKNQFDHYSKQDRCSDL

Compound: C[C@@H](c1cccc(O)c1)N(C)C [NAP 226-90, 3-[(1S)-1-(dimethylamino)ethyl]phenol]
- potency, times less than rivastigmine (acetylcholinesterase): 10 times

Compound: COc1ccc2c(c1)[C@]13CCCC[C@@H]1[C@H](C2)N(C)CC3 [dextromethorphan]
- systemic clearance [1]: about 23 mL/min/kg
- Kd (sigma one receptor [2]): 20 nM
- Kd (sigma one receptor [3]): ~19.9 nM

Compound: CCN(C)C(=O)Oc1cccc([C@H](C)N(C)C)c1 [rivastigmine, Rivastigmine]
- variation of intrinsic clearance (CL) ([4]; Alzheimer's disease patients (Hossain et al. 2002)): up to 4 fold
- CL [4, 5]: 21.6 to 82.8 L/h
- Vz [4, 5]: 53.2 to 227 L
